Test results taken from publication PMC6540015, “New Quinolone-Based Thiosemicarbazones Showing Activity Against Plasmodium falciparum and Mycobacterium tuberculosis” (Molecules, 2019).
pIC50: −log10 of the molar value. In brackets after ≈: the same amount, converted by molar mass. Read-outs that look alike come from different tables or passages of the source.

Experiments:
[1] = test system: 3D7 strain of Plasmodium falciparum; assay: In vitro anti-plasmodial pLDH assay; type: cell-based
[2] = test system: M. tuberculosis H37Rv strain; assay: microbe, parasite or virus in culture; type: cell-based; conditions: Mycobacterium tuberculosis, concentration inhibiting 90% of bacterial population; for MIC: read-out: MIC90 H37Rv
[3] = Plasmodium falciparum, chloroquine sensitive strain 3D7 of P. falciparum, 48 h, na = not active, read-out: IC50 Pf 3D7
[4] = Plasmodium falciparum, 3D7, 48 h, read-out: IC50 Pf 3D7, chloroquine sensitive strain 3D7 of P. falciparum, na = not active

| Structure (SMILES) | pIC50 [1, 3] | MIC90 [2] | MIC [2] | melting point | IC50 Pf 3D7 ([1]; chloroquine sensitive strain 3D7 of P. falciparum, 48 h, na = not active) | pIC50 [1, 4] | pIC50 ([1]; read-out: IC50 Pf 3D7, chloroquine sensitive strain 3D7 of P. falciparum, 48 h, na = not active) |
| --- | --- | --- | --- | --- | --- | --- | --- |
| CCN(CC)CCCC(C)Nc1ccnc2cc(Cl)ccc12 (stereo not drawn) [CQ, Chloroquine, reference compound] | 7.92 | – | – | – | – | – | – |
| CCOC(=O)c1c[nH]c2ccc(C(C)=O)cc2c1=O [Compound 8] | 5.40 | – | – | – | – | – | – |
| CCn1cc(C(=O)NCCCn2ccnc2)c(=O)c2cc(/C(C)=N/NC(N)=S)ccc21 [Compound 11, (E)-N-(3-(1H-imidazol-1-yl)propyl)-6-(1-(2-carbamothioylhydrazono)ethyl)-1-ethyl-4-oxo-1,4-dihydroquinolone-3-carboxamide] | 5.43 | > 125 µM | > 125 µM | 187 to 189 °C | – | – | – |
| CCn1cc(C(=O)NCCNCCO)c(=O)c2cc(/C(C)=N/NC(N)=S)ccc21 [Compound 12, (E)-6-(1-(2-carbamothioylhydrazono)ethyl)-1-ethyl-N-(2-((2-hydroxyethyl)amino)ethyl)-4-oxo-1,4-dihydroquinolone-3-carboxamide] | – | 73.4 µM (≈ 30.7 µg/mL) | 73.4 µM (≈ 30.7 µg/mL) | 183 to 185 °C | not active | – | – |
| C/C(=N\NC(N)=S)c1ccc2c(c1)c(=O)c(C(=O)NCCNCCO)cn2Cc1ccccc1 [Compound 13, (E)-1-benzyl-6-(1-(2-carbamothioylhydrazono)ethyl)-N-(2-((2-hydroxyethyl)amino)ethyl)-4-oxo-1,4-dihydroquinolone-3-carboxamide] | – | 2.7 µM (≈ 1.3 µg/mL) | 2.7 µM (≈ 1.3 µg/mL) | 197 to 199 °C | – | 5.39 | – |
| C/C(=N\NC(N)=S)c1ccc2c(c1)c(=O)c(C(=O)NCCNCCO)cn2Cc1ccc(Br)cc1 [Compound 14, (E)-1-(4-bromobenzyl)-6-(1-(2-carbamothioylhydrazono)ethyl)-N-(2-((2-hydroxyethyl)amino)ethyl)-4-oxo-1,4-dihydroquinolone-3-carboxamide] | – | 10.3 µM (≈ 5.76 µg/mL) | 10.3 µM (≈ 5.76 µg/mL) | 200 to 202 °C | – | 5.40 | 5.33 |
| C/C(=N\NC(N)=S)c1ccc2c(c1)c(=O)c(C(=O)NCCNCCO)cn2Cc1ccc(C(F)(F)F)cc1 [Compound 15, (E)-6-(1-(2-carbamothioylhydrazono)ethyl)-N-(2-((2-hydroxyethyl)amino)ethyl)-4-oxo-1-(4-(trifluoromethyl)benzyl)-1,4-dihydroquinolone-3-carboxamide] | – | 2 µM (≈ 1.1 µg/mL) | – | 199 to 201 °C | – | 5.92 | – |
| C/C(=N\NC(N)=S)c1ccc2c(c1)c(=O)c(C(=O)NCCNCCO)cn2Cc1ccc(Cl)cc1Cl [Compound 16, (E)-6-(1-(2-carbamothioylhydrazono)ethyl)-1-(2,4-dichlorobenzyl)-N-(2-((2-hydroxyethyl)amino)ethyl)-4-oxo-1,4-dihydroquinolone-3-carboxamide] | – | 4.8 µM (≈ 2.64 µg/mL) | 4.8 µM (≈ 2.64 µg/mL) | 205 to 207 °C | – | 5.51 | – |
| COCCNC(=O)c1cn(Cc2ccccc2)c2ccc(/C(C)=N/NC(N)=S)cc2c1=O [Compound 17, (E)-1-benzyl-6-(1-(2-carbamothioylhydrazono)ethyl)-N-(2-methoxyethyl)-4-oxo-1,4-dihydroquinolone-3-carboxamide] | – | 44.2 µM (≈ 20 µg/mL) | 44.2 µM (≈ 20 µg/mL) | 199 to 200 °C | – | 4.61 | – |
| COCCNC(=O)c1cn(Cc2ccc(Br)cc2)c2ccc(/C(C)=N/NC(N)=S)cc2c1=O [Compound 18, (E)-1-(4-bromobenzyl)-6-(1-(2-carbamothioylhydrazono)ethyl)-N-(2-methoxyethyl)-4-oxo-1,4-dihydroquinolone-3-carboxamide] | – | 15 µM (≈ 7.96 µg/mL) | – | 204 to 206 °C | – | 5.00 | – |
| COCCNC(=O)c1cn(Cc2ccc(Cl)cc2Cl)c2ccc(/C(C)=N/NC(N)=S)cc2c1=O [Compound 19, (E)-6-(1-(2-carbamothioylhydrazono)ethyl)-1-(2,4-dichlorobenzyl)-N-(2-methoxyethyl)-4-oxo-1,4-dihydroquinolone-3-carboxamide] | – | 10.2 µM (≈ 5.31 µg/mL) | – | 209 to 211 °C | – | – | – |
| CCOC(=O)c1cn(Cc2ccc(Cl)cc2Cl)c2ccc(/C(C)=N/NC(N)=S)cc2c1=O [Compound 21, Ethyl-(E)-6-(1-(2-carbamothioylhydrazono)ethyl)-1-(2,4-dichlorobenzyl)-4-oxo-1,4-dihydroquinolone-3-carboxylate] | – | 31.6 µM (≈ 15.5 µg/mL) | 31.6 µM (≈ 15.5 µg/mL) | 211 to 213 °C | – | – | – |
| CO[C@H]1/C=C/O[C@@]2(C)Oc3c(C)c(O)c4c(O)c(c(/C=N/N5CCN(C)CC5)c(O)c4c3C2=O)NC(=O)/C(C)=C\C=C\[C@H](C)[C@H](O)[C@@H](C)[C@@H](O)[C@@H](C)[C@H](OC(C)=O)[C@@H]1C [RF, Rifampicin, reference compound] | – | 0.062 µM (≈ 0.051 µg/mL) | – | – | – | – | – |
